Test results reported in patent US7521538B2, “Crystal structure of the ternary complex of 14-3-3/Fusicoccin/PMA and methods for designing new herbicides” (Max-Planck-Gesellschaft zur Foerderung der Wissenschaften …, priority 2003, dated 2009).
Substitutions are numbered along the chain they refer to. Read-outs that look alike come from different tables or passages of the source. Non-standard residues stand in square brackets, D forms with d. Residues, ends and D or L forms follow the SMILES beside them. pT = C[C@@H](OP(=O)(O)O)[C@H](N)C(=O)O

What was measured:
[1] = biological target: T1, 14-3-3z I175E / PMA-GST fusion construct (Homo sapiens, UniProt P63104, I166E); assay: Far-western-blot overlay, 14-3-3 I175E; assay type: binding; conditions: mutation I175E
T1 construct: made in house
T1 sequence (P63104 1-245 I166E): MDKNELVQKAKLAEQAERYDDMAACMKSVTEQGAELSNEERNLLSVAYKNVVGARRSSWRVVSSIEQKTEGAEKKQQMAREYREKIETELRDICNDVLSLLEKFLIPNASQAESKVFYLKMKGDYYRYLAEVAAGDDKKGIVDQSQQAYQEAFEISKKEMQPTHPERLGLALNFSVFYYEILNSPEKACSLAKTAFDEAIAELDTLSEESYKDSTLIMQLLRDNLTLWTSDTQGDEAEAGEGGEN
Experimental: (§1) In order to study the functional relevance of selected amino acids within the above-described binding pocket, residues the following point mutants were analysed in respect FC binding: (a) N49Q, (b) D222E, (c) F126E and (d) I175E in the homologous sequence of human 14-3-3z. The mutant proteins were expressed, purified and FC binding were tested in an in vitro assay in the presence of the 66 C-terminal residues of a PMA-GST fusion construct.
(§2) For the detection of FC binding a far-western-blot (FIG. 4) was performed. In this in vitro assay, the PMA-GST fusion construct, containing the 66 C-terminal residues of PMA, was immobilised on a nitrocellulose membrane via electroblotting of SDS-PAGE-separated proteins. The interacting protein, a his-tagged 14-3-3 construct was allowed to react with the GST-fusion protein in an overlay-solution. The interaction of these two proteins was mediated by fusicoccin. […] The actual binding of the his-tagged 14-3-3 protein was visualized after washing the membrane by immunodetecton with an anti-His-antibody, which was employed as primary antibody.

[2] = biological target: T2, 14-3-3z I175E / GST-PMA2-CT66 (Homo sapiens, UniProt P63104, I166E); assay: GST-pulldown, 14-3-3 I175E; assay type: binding; conditions: pull-down, mutation I175E
T2 construct: made in house
T2 sequence (P63104 1-245 I166E): T1 sequence (P63104 1-245 I166E)
Experimental: as §1
(§3) Alternatively, a second in-vitro method was used to screen for fusicoccin binding. In this pull-down assay (FIG. 5), the GST-PMA fusion protein is immobilized on GSH-sepharose-beads and the his-tagged 14-3-3 protein will bind in the presence of fusioccin to the GST-fusion protein and can subsequently be found in the sepharose-fraction after washing and centrifugation of the beads. The detection again takes place via SDS-PAGE and Western-Blotting with subsequent immunodetection.

[3] = biological target: T3, 14-3-3c with phosphopeptide after removal of Val (Nicotiana tabacum, UniProt P93343); assay: ITC, FC binding to 14-3-3c with phosphopeptide lacking the C-terminal Val; conditions: peptide with C-terminal Val deleted, FIG. 3b lower panel
T3 construct: Tobacco 14-3-3c (Gene bank AAC49892, amino acids 1-260 with an N-terminal His-tag); His-tag (N); made in house; host or cells: E. coli (14-3-3c); the phosphopeptide was synthesized by Biosyntan (Berlin)
Experimental: (§4) Binding of ligands to 14-3-3c was measured with a MCS isothermal titration calorimeter (MicroCal Inc., Northampton). Ligands (fusicoccin 0.4 mM; phosphopbeptides 0.5 mM) were titrated in 8 to 20 μl steps by injection into solutions containing 14-3-3c (0.05 mM) alone or 14-3-3c saturated with one of the ligands in 25 mM HEPES buffer pH 6.5, 10 mM MgCl2, 5 mM CaCl2, 5 mM DTE at 35° C. Binding isotherms were fitted using a single binding site model and used to calculate the binding enthalpy (ΔH) and association constant (Ka) of the binding reaction. Dissociation constants (KD=1/Ka), Gibbs free energy changes (ΔG=−RTInKa) and entropy changes (TΔS=ΔH−ΔG) were calculated from ΔH and Ka. For the binding of peptide to a FC/14-3-3c complex, we also used non-saturating conditions of FC and observed two binding events which were fitted independently to K1 and K4. All measurements were repeated at least three times.
(§5) PMA binding to-14-3-3 is unique in that the penultimate C-terminal residue is the phosphorylated threonine (YpTV-COOH). […] Taken together; this explains why there is no effect of FC on any other known 14-3-3-ligand interaction. To date, all plant proteins characterized as interacting directly with 14-3-3 homologs contain the consensus binding motifs with the notable exception of the plasma membrane H^+-ATPase. […]

[4] = biological target: T4, 14-3-3z F126E / PMA-GST fusion construct (Homo sapiens, UniProt P63104, F117E); assay: Far-western-blot overlay, 14-3-3 F126E; assay type: binding; conditions: mutation F126E
T4 construct: made in house
T4 sequence (P63104 1-245 F117E): T1 sequence (P63104 1-245 I166E) with F117E, E166I
Experimental: as §1, §2

[5] = biological target: T5, 14-3-3z D222E / PMA-GST fusion construct (Homo sapiens, UniProt P63104, D213E); assay: Far-western-blot overlay, 14-3-3 D222E; assay type: binding; conditions: mutation D222E
T5 construct: made in house
T5 sequence (P63104 1-245 D213E): T1 sequence (P63104 1-245 I166E) with E166I, D213E
Experimental: as §1, §2

[6] = biological target: T6, 14-3-3-fusicoccin complex (Nicotiana tabacum, UniProt P93343); assay: Isothermal titration calorimetry, peptide binding to FC/14-3-3c complex; conditions: for increase of the binding affinity of the peptide by fusicoccin: complete binding cycle, ITC
T6 construct: Tobacco 14-3-3c (Gene bank AAC49892, amino acids 1-260 with an N-terminal His-tag); His-tag (N); made in house; host or cells: E. coli
T6 sequence (P93343 1-260): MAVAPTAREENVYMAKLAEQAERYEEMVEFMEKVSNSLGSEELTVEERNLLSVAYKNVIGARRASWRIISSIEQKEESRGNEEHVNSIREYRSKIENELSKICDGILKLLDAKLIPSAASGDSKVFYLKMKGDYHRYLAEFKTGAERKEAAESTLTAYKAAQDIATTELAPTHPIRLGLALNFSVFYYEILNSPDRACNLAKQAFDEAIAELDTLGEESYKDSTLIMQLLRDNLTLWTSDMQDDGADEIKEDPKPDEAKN
Experimental: (§6) In order to obtain more quantitative data with respect to the phosphorylated pentapeptide used in the structural analysis, thermodynamic constants were determined by means of isothermal titration calorimetry (ITC, 16).
as §4

[7] = biological target: T7, 14-3-3z F126E / GST-PMA2-CT66 (Homo sapiens, UniProt P63104, F117E); assay: GST-pulldown, 14-3-3 F126E; assay type: binding; conditions: pull-down, mutation F126E
T7 construct: made in house
T7 sequence (P63104 1-245 F117E): T1 sequence (P63104 1-245 I166E) with F117E, E166I
Experimental: as §1, §3

[8] = biological target: T8, wild type 14-3-3 / PMA-GST fusion construct (66 C-terminal residues of PMA) (Homo sapiens, UniProt P63104); assay: Far-western-blot overlay, wild type 14-3-3; assay type: binding; conditions: 0, 500 nM and 1000 nM fusicoccin
T8 construct: made in house
T8 sequence (P63104 1-245): T1 sequence (P63104 1-245 I166E) with E166I
Experimental: as §1, §2

14-3-3c = biological target: T9, 14-3-3c (Nicotiana tabacum, UniProt P93343); assay: Isothermal titration calorimetry, ligand binding to 14-3-3c alone; conditions: for binding of the toxin by itself to 14-3-3: unliganded 14-3-3, no peptide
T9 construct: Tobacco 14-3-3c (Gene bank AAC49892, amino acids 1-260 with an N-terminal His-tag); His-tag (N); made in house; host or cells: E. coli
T9 sequence (P93343 1-260): T6 sequence (P93343 1-260)
Experimental: as §6, §4

[9] = Solubility of FC in aqueous solutions; assay type: physicochemical
[10] = biological target: T10, 14-3-3z D222E / GST-PMA2-CT66 (Homo sapiens, UniProt P63104, D213E); assay: GST-pulldown, 14-3-3 D222E; assay type: binding; conditions: pull-down, mutation D222E
T10 construct: made in house
T10 sequence (P63104 1-245 D213E): T1 sequence (P63104 1-245 I166E) with E166I, D213E
Experimental: as §1, §3

[11] = biological target: T11, 14-3-3c preloaded with Gln-Ser-Tyr-pThr-Val-Pro (Nicotiana tabacum, UniProt P93343); assay: ITC, FC binding to 14-3-3c preloaded with C-terminally extended phosphopeptide; conditions: peptide with added C-terminal Pro, FIG. 3b upper panel
T11 construct: Tobacco 14-3-3c (Gene bank AAC49892, amino acids 1-260 with an N-terminal His-tag); His-tag (N); made in house; host or cells: E. coli (14-3-3c); the phosphopeptide was synthesized by Biosyntan (Berlin)
T11 sequence (P93343 1-260): T6 sequence (P93343 1-260)
Experimental: as §4, §5

[12] = biological target: T12, binary 14-3-3/peptide complex (Nicotiana tabacum, UniProt P93343); assay: Isothermal titration calorimetry, FC titrated to 14-3-3c saturated with peptide; assay type: binding; conditions: ITC, 35° C., pH 6.5
T12 construct: Tobacco 14-3-3c (Gene bank AAC49892, amino acids 1-260 with an N-terminal His-tag); His-tag (N); made in house; host or cells: E. coli (14-3-3c); the phosphopeptide was synthesized by Biosyntan (Berlin)
T12 sequence (P93343 1-260): T6 sequence (P93343 1-260)
Experimental: as §6, §4

[13] = biological target: T13, 14-3-3z N49Q / GST-PMA2-CT66 (Homo sapiens, UniProt P63104, N42Q); assay: GST-pulldown, 14-3-3 N49Q; assay type: binding; conditions: pull-down, mutation N49Q
T13 construct: made in house
T13 sequence (P63104 1-245 N42Q): T1 sequence (P63104 1-245 I166E) with N42Q, E166I
Experimental: as §1, §3

[14] = biological target: T14, 14-3-3z N49Q / PMA-GST fusion construct (Homo sapiens, UniProt P63104, N42Q); assay: Far-western-blot overlay, 14-3-3 N49Q; assay type: binding; conditions: mutation N49Q
T14 construct: made in house
T14 sequence (P63104 1-245 N42Q): T1 sequence (P63104 1-245 I166E) with N42Q, E166I
Experimental: as §1, §2

14-3-3 = biological target: T15, 14-3-3 (Nicotiana tabacum, UniProt P93343); assay: Binding of non-phosphorylated peptide to 14-3-3 (not shown, method not stated)
T15 sequence (P93343 1-260): T6 sequence (P93343 1-260)
Text: The phosphopeptide occupies the central binding groove of 14-3-3c in an extended conformation. The phosphate moiety of the phosphothreonine forms electrostatic interactions with a positively charged patch formed by residues Lys56, Arg63, and Arg136 and a H-bond to Tyr137 (FIG. 1b). […] Additionally, there are a number of H-bonds (cut-off limit 3.4 Å) between the peptide, mostly from the main-chain, and conserved protein side-chains. The peptide's C-terminal barboxylate is mostly contacted by basic residues and the side chains of the Val and Tyr residue flanking the phosphothreonine form van der Waals contacts to the protein (FIG. 1b). The structure confirms the notion that the C-terminal YTV-motif is highly conserved in plant P-type H^+-ATPases.

Compound: C=CC(C)(C)OC[C@H]1O[C@H](O[C@@H]2C3=C([C@H](C)COC(C)=O)C[C@H](O)[C@]3(C)/C=C3/[C@@H](COC)CC[C@H]3[C@@H](C)[C@H]2O)[C@H](O)[C@@H](OC(C)=O)[C@@H]1O [Fusicoccin]
- fusicoccin mediated PMA binding [1]: complete inhibition of binding
- fusicoccin mediated PMA binding [2]: complete inhibition of binding
- FC binding [3]: drastically weakens the binding
- FC binding ([3]; listed as FC): significant lower binding affinity
- fusicoccin mediated PMA binding [4]: complete inhibition of binding
- fusicoccin mediated PMA binding [5]: strong reduction
- increase of the binding affinity of the peptide by fusicoccin [6]: 93 fold
- increase of the binding affinity of the peptide by fusicoccin ([6]; listed as toxin): more than 90 fold
- fusicoccin mediated PMA binding [7]: complete inhibition of binding
- fusicoccin mediated interaction of 14-3-3 with PMA-GST [8]: interaction was only observed in the presence of fusicoccin
- Kd (14-3-3c; calculated from K4 and K1×K2=K3×K4, read-out: affinity of FC to 14-3-3, more reliable value): 66 µM
- Kd (14-3-3c; direct ITC determination, somewhat unreliable, read-out: affinity of FC to 14-3-3): ~50 µM
- binding of the toxin by itself to 14-3-3 (14-3-3c; listed as FC): weak binding
- binding of the toxin by itself to 14-3-3 (14-3-3c; listed as toxin): binds only weakly
- solubility in aqueous solutions [9]: insolubility
- fusicoccin mediated PMA binding [10]: strong reduction
- FC binding [11]: drastically weakens the binding
- FC binding ([11]; listed as FC): severely impaired
- Kd [12]: 0.7 µM
- fusicoccin mediated PMA binding [13]: strong reduction
- fusicoccin mediated PMA binding [14]: strong reduction

Compound: CC(C)[C@H](NC(=O)[C@@H](NC(=O)[C@H](Cc1ccc(O)cc1)NC(=O)[C@H](CO)NC(=O)[C@@H](N)CCC(N)=O)[C@@H](C)OP(=O)(O)O)C(=O)O [peptide, Gln-Ser-Tyr-pThr-Val] (H-QSY[pT]V-OH; N-terminus assumed)
- enthalpy (ΔH) of peptide binding ([6]; 14-3-3-FC complex): -11.8 kcal/mol
- −TAS of peptide binding ([6]; 14-3-3-FC complex): 0.4 kcal/mol
- binding between 14-3-3 and the peptide ([6]; after saturation of the binding site with FC, FIG. 3A): much tighter
- Kd (14-3-3c): 2.5 µM
- enthalpy (ΔH) of peptide binding (14-3-3c; unliganded 14-3-3): -10 kcal/mol
- −TAS of peptide binding (14-3-3c; unliganded 14-3-3): 1.7 kcal/mol

Compound: Gln-Ser-Tyr-Thr-Val (QSYTV; printed: Gln-Ser-Tyr-Thr-Val) [non-phosphorylated version of the PMA2 C-terminal pentapeptide]
- binding to 14-3-3 (14-3-3): binding could not be detected
